Measured values from ChEMBL document CHEMBL4340535, “Antitumor effect of chiral organotelluranes elicited in a murine melanoma model” (Bioorg Med Chem, 2019).
The source made the active and inactive calls. The calls are words filed in the database; no cut-off is given here.

Experiments:
HT-144 [1] = test: Induction of morphological changes in human HT144 cells assessed as cell rounding at 10 uM incubated for 24 hrs by tubulin-Cy2 and TOPRO-3 staining based confocal microscopic method; assay type: functional
HT-144 [2] = test: Induction of morphological changes in human HT144 cells assessed as membrane blebbing at 10 uM incubated for 24 hrs by tubulin-Cy2 and TOPRO-3 staining based confocal microscopic method; assay type: functional, cell-based
[3] = biological target: Cathepsin B (Homo sapiens) (UniProt P07858); test: Inhibition of human recombinant cathepsin B assessed as second-order inhibition rate constant using Z-RR-MCA as substrate incubated for 10 mins by spectrofluorimetric method
[4] = biological target: Procathepsin L (Homo sapiens) (UniProt P07711); test: Inhibition of human recombinant cathepsin L expressed in Pichia pastoris assessed as second-order inhibition rate constant using Z-FR-MCA as substrate incubated for 10 mins by spectrofluorimetric method
Procathepsin L (Homo sapiens), sequence (P07711 114-333 limits assumed): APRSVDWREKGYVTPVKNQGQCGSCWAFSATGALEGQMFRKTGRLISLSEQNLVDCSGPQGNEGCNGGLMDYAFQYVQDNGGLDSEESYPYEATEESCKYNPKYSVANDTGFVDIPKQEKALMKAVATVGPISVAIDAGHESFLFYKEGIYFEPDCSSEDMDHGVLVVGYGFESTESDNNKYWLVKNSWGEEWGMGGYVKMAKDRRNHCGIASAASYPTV

[5] = biological target: Cathepsin S (Homo sapiens) (UniProt P25774); test: Inhibition of human recombinant cathepsin S assessed as second-order inhibition rate constant using Z-FR-MCA as substrate incubated for 10 mins by spectrofluorimetric method
Cathepsin S (Homo sapiens), sequence (P25774 115-331 limits assumed): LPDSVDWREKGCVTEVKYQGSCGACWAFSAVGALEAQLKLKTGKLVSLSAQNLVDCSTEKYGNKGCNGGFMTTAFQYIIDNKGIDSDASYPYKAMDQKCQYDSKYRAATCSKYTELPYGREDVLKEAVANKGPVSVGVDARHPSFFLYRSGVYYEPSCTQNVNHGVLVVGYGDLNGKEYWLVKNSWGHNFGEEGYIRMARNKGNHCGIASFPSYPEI

B16F10Nex2 [6] = test: Cytotoxicity against mouse B16F10Nex2 cells assessed as reduction in cell viability incubated for 16 hrs by MTT assay; assay type: functional, cell-based; conditions: for IC50: B16F10Nex2, 16 h
HUVEC [7] = test: Cytotoxicity against human HUVEC cells assessed as reduction in cell viability incubated for 16 hrs by MTT assay; assay type: cell-based; conditions: for IC50: Homo sapiens, HUVEC; for Activity: human, huvec
NIH3T3 = test: Cytotoxicity against mouse 3T3 cells assessed as reduction in cell viability incubated for 16 hrs by MTT assay; assay type: cell-based; conditions: for IC50: Mus musculus, NIH3T3, 16 h; for Activity: mouse, nih3t3, 16 h
SK-MEL-25 = test: Cytotoxicity against human SK-MEL-25 cells assessed as reduction in cell viability incubated for 16 hrs by MTT assay; assay type: functional, cell-based; conditions: for IC50: SK-MEL-25, 16 h
SK-MEL-28 = test: Cytotoxicity against human SK-MEL-28 cells assessed as reduction in cell viability incubated for 16 hrs by MTT assay; assay type: functional, cell-based; conditions: for IC50: SK-MEL-28, 16 h
A2058 = test: Cytotoxicity against human A2058 cells assessed as reduction in cell viability incubated for 16 hrs by MTT assay; assay type: functional, cell-based; conditions: for IC50: A2058, 16 h
MeWo = test: Cytotoxicity against human MeWo cells assessed as reduction in cell viability incubated for 16 hrs by MTT assay; assay type: functional, cell-based
HeLa = test: Cytotoxicity against human HeLa cells assessed as reduction in cell viability incubated for 16 hrs by MTT assay; assay type: functional, cell-based
HT-144 [8] = test: Cytotoxicity against human HT144 cells assessed as reduction in cell viability incubated for 16 hrs by MTT assay; assay type: functional, cell-based
B16F10Nex2 [9] = test: Antitumor activity against mouse B16F10Nex2 cells transplanted in C57BL/6 mouse assessed as reduction in lungs superficial nodules at 20 uM, ip administered every other day for 12 days and measured 21 days post transplantation relative to control; assay type: functional
HUVEC [10] = test: Anti-angiogenic activity in human HUVEC cells assessed as inhibition in pro-angiogenic structures formation in presence of fetal calf serum at 0.5 uM incubated for 18 hrs by inverted light microscopy based matrigel assay; assay type: functional
B16F10Nex2 [11] = test: Inhibition of cell adhesion of mouse B16F10Nex2 cells assessed as reduction in cell adhesion to type 1 collagen at 2 uM incubated for 3 hrs by toluidine blue staining based assay; assay type: functional
B16F10Nex2 [12] = test: Inhibition of cell adhesion of mouse B16F10Nex2 cells assessed as reduction in cell adhesion to type 4 collagen at 2 uM incubated for 3 hrs by toluidine blue staining based assay; assay type: functional
B16F10Nex2 [13] = test: Inhibition of cell adhesion of mouse B16F10Nex2 cells assessed as reduction in cell adhesion to fibronectin at 2 uM incubated for 3 hrs by toluidine blue staining based assay; assay type: functional
B16F10Nex2 [14] = test: Inhibition of cell adhesion of mouse B16F10Nex2 cells assessed as reduction in cell adhesion to laminin at 2 uM incubated for 3 hrs by toluidine blue staining based assay; assay type: functional
B16F10Nex2 [15] = test: Antimigratory activity against mouse B16F10Nex2 cells assessed as reduction in cell migration towards wound area at 20 uM measured every hour for 24 hrs by scratch wound-healing assay relative to control; assay type: functional; conditions: B16F10Nex2, 24 h
HUVEC [16] = test: Antimigratory activity against human HUVEC cells assessed as reduction in cell migration towards wound area at 20 uM measured every hour for 24 hrs by scratch wound-healing assay relative to control; assay type: functional
HUVEC [17] = test: Anti-invasive activity in human HUVEC cells assessed as reduction in invasive potential at 20 uM incubated for 24 hrs by Giemsa staining based matrigel assay; assay type: functional, cell-based
B16F10Nex2 [18] = test: Anti-invasive activity in mouse B16F10Nex2 cells assessed as reduction in invasive potential at 20 uM incubated for 24 hrs by Giemsa staining based matrigel assay relative to control; assay type: functional; conditions: B16F10Nex2, 24 h
B16F10Nex2 [19] = test: Induction of morphological changes in mouse B16F10Nex2 cells at 10 uM incubated for 24 hrs by tubulin-Cy2 and TOPRO-3 staining based confocal microscopic method; assay type: functional, cell-based
HT-144 [20] = test: Induction of morphological changes in human HT144 cells at 10 uM incubated for 24 hrs by tubulin-Cy2 and TOPRO-3 staining based confocal microscopic method; assay type: functional, cell-based
B16F10Nex2 [21] = test: Induction of morphological changes in mouse B16F10Nex2 cells assessed as cell rounding at 10 uM incubated for 24 hrs by tubulin-Cy2 and TOPRO-3 staining based confocal microscopic method; assay type: functional
B16F10Nex2 [22] = test: Induction of morphological changes in mouse B16F10Nex2 cells assessed as retraction of cell protrusions at 10 uM incubated for 24 hrs by tubulin-Cy2 and TOPRO-3 staining based confocal microscopic method; assay type: functional
B16F10Nex2 [23] = test: Induction of morphological changes in mouse B16F10Nex2 cells assessed as depolymerisation of F-actin at 10 uM incubated for 24 hrs by tubulin-Cy2 and TOPRO-3 staining based confocal microscopic method; assay type: functional, cell-based
B16F10Nex2 [24] = test: Induction of morphological changes in mouse B16F10Nex2 cells assessed as membrane blebbing at 10 uM incubated for 24 hrs by tubulin-Cy2 and TOPRO-3 staining based confocal microscopic method; assay type: functional, cell-based
HT-144 [25] = test: Induction of morphological changes in human HT144 cells assessed as retraction of cell protrusions at 10 uM incubated for 24 hrs by tubulin-Cy2 and TOPRO-3 staining based confocal microscopic method; assay type: functional
HT-144 [26] = test: Induction of morphological changes in human HT144 cells assessed as depolymerisation of F-actin at 10 uM incubated for 24 hrs by tubulin-Cy2 and TOPRO-3 staining based confocal microscopic method; assay type: functional, cell-based
HT-144 [27] = test: (§1) Induction of morphological changes in human HT144 cells assessed as reduction in stress fibers formation by measuring cell rounding at 30 uM incubated for 24 hrs by phalloidin-TRITC, tubulin-Cy2 and TOPRO-3 staining based confocal microscopic method; assay type: functional
HT-144 [28] = test: as §1, with “remaining cortical actin in close association with the microtubule network” for “cell rounding”; assay type: functional, cell-based
B16F10Nex2 [29] = test: Antitumor activity against mouse B16F10Nex2 cells transplanted in C57BL/6 mouse assessed as reduction in lung metastases at 20 uM, ip administered for 5 non-consecutive days and measured 21 days post transplantation relative to control; assay type: functional; parameters: scale not given: the % may be the effect or the level left
HT-144 [30] = test: Induction of morphological changes in human HT144 cells assessed as cell rounding with remaining cortical actin in close association with the microtubule network at 30 uM incubated for 24 hrs by phalloidin-TRITC, tubulin-Cy2 and TOPRO-3 staining based confocal microscopic method; assay type: functional
HUVEC [31] = test: Anti-angiogenic activity in human HUVEC cells assessed as inhibition in pro-angiogenic structures formation in presence of fetal calf serum at 0.062 uM incubated for 18 hrs by inverted light microscopy based matrigel assay; assay type: functional
HUVEC [32] = test: Anti-angiogenic activity in human HUVEC cells assessed as inhibition in pro-angiogenic structures formation in presence of fetal calf serum at 5 uM incubated for 18 hrs by inverted light microscopy based matrigel assay; assay type: functional

## CCCC[Te](Cl)(Cl)c1ccccc1[C@@H](C)OC
HT-144 [1]
  Activity: Active
HT-144 [2]
  Activity: Active
[3]
  K: 3700 M⁻¹ s⁻¹
[4]
  K: 5500 M⁻¹ s⁻¹
[5]
  K: 39000 M⁻¹ s⁻¹
B16F10Nex2 [6]
  Activity: Dose-dependent effect
  IC50: 2.3 mM
HUVEC [7]
  IC50: 20.3 mM
  Activity: Dose-dependent effect
NIH3T3
  IC50: 11.5 mM
  Activity: Dose-dependent effect
SK-MEL-25
  Activity: Dose-dependent effect
  IC50: 18 mM
SK-MEL-28
  Activity: Dose-dependent effect
  IC50: 6.2 mM
A2058
  Activity: Dose-dependent effect
  IC50: 5.5 mM
MeWo
  Activity: Dose-dependent effect
  IC50: 9.5 mM
HeLa
  Activity: Dose-dependent effect
  IC50: 2.3 mM
HT-144 [8]
  Activity: Dose-dependent effect
B16F10Nex2 [9]
  fold change (FC): 2
HUVEC [10]
  inhibition at 0.5 µM: 45%
B16F10Nex2 [11]
  inhibition: Active
B16F10Nex2 [12]
  inhibition: Active
B16F10Nex2 [13]
  inhibition: Active
B16F10Nex2 [14]
  inhibition: Active
B16F10Nex2 [15]
  inhibition at 20 µM: 80%
HUVEC [16]
  inhibition at 20 µM: 33%
HUVEC [17]
  Activity: Active
B16F10Nex2 [18]
  inhibition at 20 µM: 80%
B16F10Nex2 [19]
  Activity: Active
HT-144 [20]
  Activity: Active
B16F10Nex2 [21]
  Activity: Active
B16F10Nex2 [22]
  Activity: Active
B16F10Nex2 [23]
  Activity: Active
B16F10Nex2 [24]
  Activity: Active
HT-144 [25]
  Activity: Active
HT-144 [26]
  Activity: Active
HT-144 [27]
  Activity: Active
HT-144 [28]
  Activity: Active
B16F10Nex2 [29]
  Activity: 58%
HT-144 [30]
  Activity: Active

## CCCC[Te](Cl)(Cl)c1ccccc1[C@H](C)OC
HT-144 [1]
  Activity: Active
HT-144 [2]
  Activity: Active
[3]
  K: 7400 M⁻¹ s⁻¹
[4]
  K: 8700 M⁻¹ s⁻¹
[5]
  K: 600000 M⁻¹ s⁻¹
B16F10Nex2 [6]
  Activity: Dose-dependent effect
  IC50: 0.9 mM
HUVEC [7]
  IC50: 2.8 mM
  Activity: Dose-dependent effect
NIH3T3
  IC50: 3.1 mM
  Activity: Dose-dependent effect
SK-MEL-25
  Activity: Dose-dependent effect
  IC50: 2.5 mM
SK-MEL-28
  Activity: Dose-dependent effect
  IC50: 3.1 mM
A2058
  Activity: Dose-dependent effect
  IC50: 1.5 mM
MeWo
  Activity: Dose-dependent effect
  IC50: 3.2 mM
HeLa
  Activity: Dose-dependent effect
  IC50: 0.8 mM
HT-144 [8]
  Activity: Dose-dependent effect
B16F10Nex2 [9]
  fold change (FC): 7
HUVEC [31]
  inhibition at 0.062 µM: 55%
B16F10Nex2 [11]
  inhibition: Active
B16F10Nex2 [12]
  inhibition: Active
B16F10Nex2 [13]
  inhibition: Active
B16F10Nex2 [14]
  inhibition: Active
B16F10Nex2 [15]
  inhibition at 20 µM: 80%
HUVEC [17]
  Activity: Active
B16F10Nex2 [18]
  inhibition at 20 µM: 80%
B16F10Nex2 [19]
  Activity: Active
HT-144 [20]
  Activity: Active
B16F10Nex2 [21]
  Activity: Active
B16F10Nex2 [22]
  Activity: Active
B16F10Nex2 [23]
  Activity: Active
B16F10Nex2 [24]
  Activity: Active
HT-144 [25]
  Activity: Active
HT-144 [26]
  Activity: Active
HT-144 [27]
  Activity: Active
HT-144 [28]
  Activity: Active
B16F10Nex2 [29]
  Activity: 85%
HT-144 [30]
  Activity: Active

## CC(C)C[C@H](NC(=O)[C@H]1O[C@@H]1C(=O)O)C(=O)NCCCCN=C(N)N [E-64]
HUVEC [32]
  inhibition at 5 µM: 80%
